Experiment [1] is described as follows: Cocaine reinstatement (relapse) after extinction of intravenous cocaine self-administration. To be noted: rat; for effect on cocaine-induced relapse, compared with Compound A (result in words): tested similarly. Format: in vivo, Sprague-Dawley rat.
A short description of experiment [2]: Nicotine intravenous self-administration. The settings on record: rat, escalating doses 0.00, 7.5, 10 and 15 mg/kg ip, 30 min before session; Figure 1. Format: in vivo, Wistar-derived rat.
For experiment [3] the following is noted: in vivo; cited from earlier work.
In experiment [4] the target is T1, human mitochondrial aldehyde dehydrogenase (ALDH-2) [인간 미토콘드리아 알데히드 디히드로게나아제 (ALDH-2)] (Homo sapiens, UniProt P05091).
T1 sequence (P05091 18-517): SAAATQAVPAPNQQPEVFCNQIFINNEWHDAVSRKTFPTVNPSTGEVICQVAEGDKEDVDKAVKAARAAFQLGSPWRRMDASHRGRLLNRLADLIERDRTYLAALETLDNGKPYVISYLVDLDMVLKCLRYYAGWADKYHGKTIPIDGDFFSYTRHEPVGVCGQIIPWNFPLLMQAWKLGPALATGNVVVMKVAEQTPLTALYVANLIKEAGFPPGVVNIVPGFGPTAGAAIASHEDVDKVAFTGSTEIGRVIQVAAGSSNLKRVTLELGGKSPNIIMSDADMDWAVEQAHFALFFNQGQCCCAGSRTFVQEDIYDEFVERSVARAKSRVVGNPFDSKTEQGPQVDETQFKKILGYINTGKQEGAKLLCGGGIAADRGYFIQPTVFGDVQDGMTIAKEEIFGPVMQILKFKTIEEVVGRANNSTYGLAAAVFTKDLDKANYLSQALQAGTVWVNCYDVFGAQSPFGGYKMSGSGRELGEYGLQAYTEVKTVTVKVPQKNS
The settings on record: potency and selectivity in words; cited from earlier work.

Structures are written as SMILES. “Also recorded” adds a separate entry of the source.

On to `CS(=O)(=O)Nc1ccc(-c2coc3cc(OCc4cccc(C(=O)O)c4)ccc3c2=O)cc1` [3-[(3-{4-[(메틸술포닐)아미노]페닐}-4-옥소크로멘-7-일옥시)메틸]벤조산], for which the “lever press response after cocaine priming (effect in words)” value in experiment [1] (7.5 and 10 mg/kg before priming injection of cocaine (10 mg/kg)) is “지렛대 누름 반응에서 증가를 보여주지 않았다 (재발하지 않음)”. The “cocaine relapse (effect in words)” value in experiment [1] (ip, dose-dependent, cocaine priming 10 mg/kg) is reported as “투여량에 좌우되어 코카인에 대한 재발을 차단했다”. Also, the “number of bar presses for nicotine (plotted as number of infusions)” value in experiment [2] was “횟수를 감소시켰다; also recorded: 바아 프레스의 횟수를 감소시키는”. As for `O=c1c(-c2ccc(O)cc2)coc2cc(O[C@@H]3O[C@H](CO)[C@@H](O)[C@H](O)[C@H]3O)ccc12` [다이드진 (daidzein)], the “suppression of ethanol intake / absorption (in words)” value in experiment [3] was “에탄올 섭취 억제에 효과적인”. Turning to `O=c1c(-c2ccc(O)cc2)coc2cc(O)ccc12` [다이드진], the “inhibition of ALDH-2 (in words)” value in experiment [4] is recorded as “강력하고 선택적인 저해제”. Also, in experiment [3], the “suppression of ethanol intake / absorption (in words)” value was “에탄올 흡수 억제에 유효한”. Regarding `O=C(O)c1cccc(-c2nc(COc3ccc4c(=O)c(-c5ccc(O)cc5)coc4c3)no2)c1` [3-(3-{[3-(4-히드록시페닐)-4-옥소크로멘-7-일옥시]메틸}-1,2,4-옥사디아졸-5-일)벤조산], the “effect on cocaine-induced relapse, compared with Compound A (result in words)” value in experiment [1] is recorded as “유사한 결과가 수득되었다”. On the same count and under the same terms, the same measure for `O=c1c(-c2ccc(O)cc2)coc2cc(OCc3noc(-c4cc(F)cc(C(F)(F)F)c4)n3)ccc12` [7-({5-[3-플루오로-5-(트리플루오로메틸)페닐](1,2,4-옥사디아졸-3-일)}메톡시)-3-(4-히드록시페닐)크로멘-4-온]: “유사한 결과가 수득되었다”.
